From US5607967A, “Treatment of alzheimer's disease with 5-(tetradecyloxy)-2-furan carboxylic acid” (Merck & Co., Inc., priority 1994, dated 1997)

How the values were obtained:
[1] = target: T1, native mouse glucocorticoid receptor (Mus musculus, UniProt P06537); assay: Transcription assay, native glucocorticoid receptor co-transfected with MMTV-luciferase reporter
T1 sequence (P06537 1-792): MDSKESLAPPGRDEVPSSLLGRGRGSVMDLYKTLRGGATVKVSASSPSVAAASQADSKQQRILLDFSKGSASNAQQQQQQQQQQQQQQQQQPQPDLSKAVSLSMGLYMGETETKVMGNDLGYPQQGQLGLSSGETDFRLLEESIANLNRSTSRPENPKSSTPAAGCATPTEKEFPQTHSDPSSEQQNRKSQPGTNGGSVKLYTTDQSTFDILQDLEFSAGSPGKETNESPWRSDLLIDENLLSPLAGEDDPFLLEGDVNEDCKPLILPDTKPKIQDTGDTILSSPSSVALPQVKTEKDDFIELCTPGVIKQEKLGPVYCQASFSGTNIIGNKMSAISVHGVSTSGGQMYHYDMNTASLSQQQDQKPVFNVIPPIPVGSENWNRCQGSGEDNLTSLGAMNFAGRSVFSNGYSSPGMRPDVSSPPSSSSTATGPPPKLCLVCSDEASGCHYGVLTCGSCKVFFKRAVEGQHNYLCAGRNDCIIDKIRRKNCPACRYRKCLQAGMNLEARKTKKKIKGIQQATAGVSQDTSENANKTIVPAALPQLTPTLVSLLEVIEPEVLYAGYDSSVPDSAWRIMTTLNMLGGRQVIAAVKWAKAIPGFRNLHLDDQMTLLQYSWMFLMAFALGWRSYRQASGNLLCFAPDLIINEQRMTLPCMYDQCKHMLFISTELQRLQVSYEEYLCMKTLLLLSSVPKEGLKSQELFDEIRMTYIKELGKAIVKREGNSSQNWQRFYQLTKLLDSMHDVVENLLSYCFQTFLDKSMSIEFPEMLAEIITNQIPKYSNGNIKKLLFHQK
Experimental: (§1) The reporter gene was the plasmid pJA358 in which the expression of firefly luciferase is regulated by two tandem repeats of the glucocorticoid hormone response element (GRE) linked to the MMTV promoter (Boie et al., 1993).
(§2) Transient transfection of COS and CV1 cells was performed as described (Schmidt 1992). Cells were plated (1.5×10^5 in 1 mL) into 12 well dishes in phenol red-free medium supplemented with activated charcoal treated fetal calf serum. The next day 0.12 mL of DNA 10 μg/ml (5 μg receptor DNA and 5 μg reporter plasmid), as a calcium phosphate precipitate, was added to the cells. Ligands were added to the cells 30 minutes after transfection. The next day (18 hours), the cells were washed and fresh ligands added. Twenty-four hours later, cell extracts were prepared and assayed for luciferase enzyme activity using the luciferase assay system (Promega Madison, Wis.). Each transfection was performed in triplicate and the luciferase activity of each sample measured in duplicate using the AutoClinilumat (Berthold Nashua, N.H.).
(§3) The transfected cells were treated with TOFA at 2 μM, 10 μM, 20 μM, and 50 μM and oleic acid at 50 μM, and 300 μM.

human NUCI receptor = target: T2, human NUCI receptor (Homo sapiens, UniProt Q03181); assay: Transcription assay, native NUC-I receptor co-transfected with MMTV-luciferase reporter
T2 sequence (Q03181 1-441): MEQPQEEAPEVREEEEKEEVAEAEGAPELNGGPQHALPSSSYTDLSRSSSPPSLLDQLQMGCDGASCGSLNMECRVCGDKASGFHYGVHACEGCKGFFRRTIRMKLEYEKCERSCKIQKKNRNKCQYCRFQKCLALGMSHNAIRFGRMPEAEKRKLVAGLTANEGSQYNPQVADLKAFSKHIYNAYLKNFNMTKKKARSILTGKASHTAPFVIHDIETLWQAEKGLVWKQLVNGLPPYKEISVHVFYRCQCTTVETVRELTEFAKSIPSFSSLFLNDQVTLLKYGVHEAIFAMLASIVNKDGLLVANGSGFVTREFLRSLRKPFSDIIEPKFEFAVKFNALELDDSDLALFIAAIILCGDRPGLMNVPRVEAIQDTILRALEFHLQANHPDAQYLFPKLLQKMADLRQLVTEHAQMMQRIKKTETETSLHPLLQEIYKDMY
Experimental: as §1, §2, §3

[2] = system: reporter gene under the control of the promoter of SV40; assay: Luciferase expression with reporter gene under control of the SV40 promoter; format: cell-based
GR/NER chimeric receptor = assay: Activation of GR/NER in COS-7 cells (luciferase); settings: 1440 min
Experimental: The ligand dependent transcription assays were performed as described in Example 4. The transfected COS cells were treated with dopamine, TOFA, or with the combination of TOFA and dopamine at the indicated concentrations and tested for luciferase activity.

[3] = system: Dopamine D1 receptor antagonist (SCH 23390) induced catalepsy; assay: SCH 23390 induced catalepsy (Bar method); format: in vivo, rat; settings: for Catalepsy Duration: TOFA 0.4 mg/kg S.C. pretreatment
Experimental: Rats were pretreated with 0.4 mg/kg TOFA or with carrier (S.C.). Twenty-four hours later, the rats were challenged with 0.5 mg/kg SCH23390, a Dopamine D1 antagonist, and the duration of catalepsy was monitored.
Catalepsy was determined by a modification of the Bar method (Undie and Friedman, 1988). A steel bar, 1.1 cm in diameter and 50 cm long, was suspended at a height of 10 cm above the working surface. Three sides of the bench around the bar were walled off with brown cardboard, and the linings on the bench surface were selected to be of the same color with the cardboard walls. The animal's hind limbs were freely placed on the bench, the fail laid out to the back, and the forelimbs placed over the bar. The length of time a rat stayed up on the bar was noted up to a preset cut-off point of 120 s. The time was counted off upon observing any of the following actions: (1) the animal came off, placing its two forepaws on the bench, (2) the animal climbed onto or over the bar with both hind limbs, (3) the animal initiated locomotion along or around the bar. Subsequently, time readings were translated into scores by awarding a score of 1 for each successfully completed 5 s on the bar. For each observation time, catalepsy scores were averaged for all the animals in a group to give the Mean Score of the group at that observation time. Further, the scores for each animal at all the observation times were added to give the total score for that animal. The mean of this last group of numbers was called the Mean Total Score of the group.
Catalepsy scores were analyzed by computer in accordance with the statistical procedures outlined by Winer, B. J.: Statistical principles in experimental design. McGraw-Hill, New York, pp. 10-428, 1971. Generally, for a given set of comparisons, observations were subjected to an appropriate analysis of variance followed by two-tailed Dunnett or Student's t-tests to detect differences between treatment groups.

[4] = read-out: Fold of stimulation GR
[5] = read-out: Fold of stimulation NUC-I

**Q.** `CCCCCCCCCCCCCCOc1ccc(C(=O)O)o1` [TOFA, 5-(tetradecyloxy)-2-furan carboxylic acid] was tested. Which “Expression of MMTV-luciferase reporter after co-transfection of native glucocorticoid receptor” value [1] did it give?
**A.** The value was “did not stimulate expression”.

**Q.** And the fold induction at 2 µM [1, 4]?
**A.** The fold induction at 2 µM was 1.02 ± 0.4.

**Q.** What about the fold induction at 10 µM [1, 4] of the same compound?
**A.** Its fold induction at 10 µM is 0.8 ± 0.14.

**Q.** What about the fold induction at 50 µM [1, 4] of the same compound?
**A.** The fold induction at 50 µM was 0.91 ± 0.3.

**Q.** And the “Expression of MMTV-luciferase reporter after co-transfection of native NUCI” value (human NUCI receptor)?
**A.** The value was “did not stimulate expression”.

**Q.** What about the fold induction at 2 µM (human NUCI receptor; [5]) of the same compound?
**A.** The fold induction at 2 µM was 0.83 ± 0.12.

**Q.** And the fold induction at 10 µM (human NUCI receptor; [5])?
**A.** Its fold induction at 10 µM is 0.94 ± 0.08.

**Q.** And the fold induction at 50 µM (human NUCI receptor; [5])?
**A.** Its fold induction at 50 µM is 1.27 ± 0.06.

**Q.** And the “Expression of luciferase, reporter under SV40 promoter” value [2]?
**A.** The value was “did not stimulate the expression of luciferase”.

**Q.** And the “Fold of stimulation GR/NER” value (GR/NER chimeric receptor; TOFA 10 μM with dopamine 100 μM)?
**A.** The value was 3.24 ± 0.06 fold.

**Q.** What about the “Fold of stimulation GR/NER” value (GR/NER chimeric receptor; TOFA 100 μM with dopamine 100 μM) of the same compound?
**A.** The value was 2.85 ± 0.07 fold.

**Q.** And the “Fold of stimulation GR/NER” value (GR/NER chimeric receptor; TOFA 100 μM, no dopamine)?
**A.** The value was 3.36 ± 0.04 fold.

**Q.** What about the “Catalepsy Duration” value ([3]; 24 h later 0.5 mg/kg SCH23390) of the same compound?
**A.** Its value is 75 ± 17.8 s.

**Q.** What about the “Catalepsy Duration” value ([3]; no challenge) of the same compound?
**A.** Its value is 0 s.

**Q.** And the “Increase of duration of SCH 23390-induced catalepsy by TOFA pretreatment” value ([3]; TOFA 0.4 mg/kg S.C., 24 h before 0.5 mg/kg SCH23390)?
**A.** Its value is “at least 25 fold”.
